In data set [1] the test system is mouse (MBT2) bladder cancer cells. The data set can be described thus: MTT dye reduction cell viability assay on MBT2 cells. The format is cell-based. As for the experimental part:
(§1) The cytotoxic effects of tachpyr on mouse (MBT2) and human (T24) bladder cancer cells were evaluated in vitro, and compared to normal human fibroblasts (MRC-5). MBT2 cells were provided by Dr. L. Lattime (Thomas Jefferson University, Philadelphia, Pa.), while MRC-5 cells were a gift of H. Blau (Standford University, Standford, Calif.). T24 cells were obtained from ATTC (Rockville, Md.). Cells were grown in RPMI (MBT2) or DME medium (T24 and MRC-5) containing 10% fetal bovine serum in a humidified chamber containing 5% CO2. 5×10^3 cells were plated into 96-well tissue culture dishes, and permitted to attach overnight. Test compounds were then added, with six replicate cultures used for each point.
After 72 hours, cell viability was assessed using an MTT dye reduction assay [Mosmann, T., J. Immunol. Meth. 65:55 (1983)]. The MTT assay is widely used to measure drug effects on cell viability. [see Richardson, D., Blood 86:4295 (1995); Brüggerman, S., Cancer Res. 57:2676 (1997); and Silber, R., Blood 84:3440 (1994)]. Specifically, (3-(4,5-dimethylthiazol-2-yl)-2,5-diphenyl tetraxolium bromide was added to the medium, and the formation of a reduced product was assayed by measuring the optical density at 560/650 nm after 3 hours. Color formation was considered proportional to viable cell numbers. IC50 was defined as the concentration required to inhibit viability by 50%, and was calculated using the Multiple Drug-effect Analysis Program (Biosoft).
MBT2 cells were then incubated with 150 μM (dfo) or 25 μM tachpyr for various lengths of time, and survival was then measured using the MTT assay described above. Viability at time 0 was defined as 100%. […] Rather, cytotoxicity was delayed by approximately 24 hours, paralleling the cytotoxic time course of desferioxamine.
The metal complexes of tachpyr were prepared as disclosed in Example 3, and their effects on MBT2 cells were compared to those of tachpyr after 72 hours using the MTT assay referenced in Example 8.
For orientation: Formazan colour is commonly taken as a measure of viable cells.

In data set [2] the test system is tumor cells. The note with it: background statement; cited from earlier work.
For data set [3] the following is noted: Richardson, D., Blood 86:4295 (1995); cited from earlier work.
For data set [4], the system named is cell culture. As to the kind of experiment: Preliminary cell culture experiments comparing toxicity of tachpyr with tachpn. It counts as cell-based. An excerpt:
In order to further explore the hypothesis that oxidative dehydrogenation is involved in chelator toxicity, the tach-based chelator with three N-propyleneamino arms (termed tachpn, Scheme 4 as shown in FIG. 3) has been studied. Tachpn is distinguished from tachpyr in having the —C(H)(CH3)(NH2) fragment in place of the pyridine ring. The α-hydrogens of tachpn are sterically hindered, relative to tachpyr, by the methyl group in the β position, so that tachpn may have a lower propensity toward α-hydrogen abstraction. Further, the pseudo-benzylic H^a of tachpyr would also have a potentially greater tendency to be abstracted, as compared to tachpn, on electronic grounds [see March, J., Advanced Organic Chemistry. McGraw-Hill, pp 914 ff) The considerations would imply that tachpn is less able than tachpyr to undergo oxidative dehydrogenation and to reduce Fe(III). Preliminary cell culture experiments were conducted to compare the toxicity of tachpyr with tachpn (FIG. 3).

The test system of data set [5] is tumor cells.
The test system of data set [6] is normal human fibroblasts (MRC-5). The data set can be described thus: MTT dye reduction cell viability assay on MRC-5 cells. It counts as cell-based. The note with it: cell type MRC-5, 72 hours, read-out: IC50(μM) of Tachpyr. As for the experimental part:
as §1
(§2) After 72 hours, cell viability was assessed using an MTT dye reduction assay [Mosmann, T., J. Immunol. Meth. 65:55 (1983)]. The MTT assay is widely used to measure drug effects on cell viability. [see Richardson, D., Blood 86:4295 (1995); Brüggerman, S., Cancer Res. 57:2676 (1997); and Silber, R., Blood 84:3440 (1994)]. […]

For data set [7], the system named is breast cancer cell lines. The data set can be described thus: Cytotoxicity to breast cancer cell lines. It counts as cell-based.
Data set [8] deals with MBT2 or T24 cultured bladder cancer cells. As to the kind of experiment: Cytotoxicity toward cultured bladder tumor cells. It counts as cell-based. To be noted: cultured human and mouse bladder tumor cells. As for the experimental part: as §1, §2
The subject of data set [9] is ferritin synthesis. The data set can be described thus: Ferritin synthesis (35S labeling, immunoprecipitation, SDS PAGE). The note with it: 20 μM tachpyr, 16 hours. The format is cell-based. As for the experimental part: Ferritin is a major iron storage protein whose synthesis is dependent upon intracellular concentrations of iron. To examine the role of tachpyr in the chelation of intracellular iron, the influence of tachpyr on ferritin synthesis was examined. Cells were exposed for either 7 or 16 hours to media containing either no additions, 20 μM tachpyr, 150 μM desferioxamine or 200 μM ferric nitrolotriacetate. During the last two hours of incubation, cells were metabolically labeled with S-translabel (ICN) and ferritin visualized by immunoprecipitation and SDS PAGE [Torti, S. et al.,J. Biol. Chem. 263:12638 (1988).]

The subject of data set [10] is human (T24) bladder cancer cells. The data set can be described thus: MTT dye reduction cell viability assay on T24 cells. The format is cell-based. The note with it: cell type T24, 72 hours, read-out: IC50(μM) of Tachpyr. The method, then: as §1, §2
Data set [11] has as its system RAW 264.7 cells. As to the kind of experiment: Apoptosis: DNA fragmentation by agarose gel electrophoresis. The format is cell-based. The note with it: 25 μM, 0, 6, 12 and 20 hours. An excerpt:
Apoptosis, or “programmed cell death,” is a process initiated by many anti-cancer agents. Pathways of apoptosis involve complex intracellular changes, including the action of intracellular proteases (caspases), release of cytochrome C, mitochondrial changes, nuclear condensation and fragmentation, and ultimately cell death. A hallmark of apoptotic cell death is the appearance of “DNA ladders”: DNA cleaved at […] regions to generate a series of DNA fragments that can be visualized using agarose gel electrophoresis. In order to determine whether tachpyr triggers apoptotic pathways, DNA was isolated from RAW 264.7 cells that had been treated with 25 μM tachpyr for 0, 6, 12 and 20 hours. DNA was also isolated from cells treated for 7 hours with 50 μM cisplatin or 500 μM etoposide (VP16). Cisplatin and etoposide are DNA damaging agents that are currently used in cancer therapy and are known to induce apoptosis. They served as positive controls. We compared the effects of tachpyr, VP16 and cisplatin on DNA fragmentation using agarose gel electrophoresis. […] Thus, cytotoxic pathways elicited by tachpyr are similar to those evoked by classic anti-cancer agents, and are consistent with its contemplated use as a chemotherapeutic agent.

In data set [12] the test system is MBT2 cells. As to the kind of experiment: Clonogenic assay. It counts as cell-based, mouse. To be noted: 72 hours with tachpyr, colonies grown seven days. The method, then:
Cell viability was also-assessed using a clonogenic assay, which measures the ability of cells to divide and form visible colonies of about 50 or more cells. Replicate plates were exposed to various concentrations of tachpyr added to the growth medium. Control cells received no tachpyr. At the end of the incubation period, the surviving cells were trypsinized, diluted, and re-plated in growth medium without tachpyr. Colonies were permitted to grow for seven days. The growth medium was then removed, and plates were fixed with 0.5% gluteraldehyde, stained with 1% crystal violet, and then counted.

Like-named read-outs stand apart in the source and are kept apart here.

As to `[Cl-].[Cl-].[Cu+2].c1ccc(CNC2CC(NCc3ccccn3)CC(NCc3ccccn3)C2)nc1` (centres unmarked) [CU(II) complex of tachpyr], the “cytotoxicity (in words)” value in data set [1] (MBT2 cells, 72 hours, MTT) is “not toxic”.

Regarding `[Ca+2].[Cl-].[Cl-].c1ccc(CNC2CC(NCc3ccccn3)CC(NCc3ccccn3)C2)nc1` (centres unmarked) [Ca(II) complex of tachpyr], in [1] (MBT2 cells, 72 hours, MTT), the “cytotoxicity (in words)” value is recorded as “toxic”.

Regarding `[Cl-].[Cl-].[Mg+2].c1ccc(CNC2CC(NCc3ccccn3)CC(NCc3ccccn3)C2)nc1` (centres unmarked) [MG(II) complex of tachpyr], in data set [1] (MBT2 cells, 72 hours, MTT), the “cytotoxicity (in words)” value is recorded as “toxic”.

Consider `[Mn+2].[O-][Cl+3]([O-])([O-])[O-].[O-][Cl+3]([O-])([O-])[O-].c1ccc(CNC2CC(NCc3ccccn3)CC(NCc3ccccn3)C2)nc1` (centres unmarked) [MN(II) complex of tachpyr], for which the “cytotoxicity (in words)” value in [1] (MBT2 cells, 72 hours, MTT) is reported as “toxic”.

As for `[O-][Cl+3]([O-])([O-])[O-].[O-][Cl+3]([O-])([O-])[O-].[Zn+2].c1ccc(CNC2CC(NCc3ccccn3)CC(NCc3ccccn3)C2)nc1` (centres unmarked) [Zn(II) complex of tachpyr], the “cytotoxicity (in words)” value in data set [1] (MBT2 cells, 72 hours, MTT) was “not toxic”.

With `c1ccc(-c2ccccn2)nc1` [bipy], in [2], the “cytotoxic effects on tumor cells (in words)” value is reported as “only weak cytotoxic effects”.

As to `CC(=O)N(O)CCCCCNC(=O)CCC(=O)N(O)CCCCCNC(=O)CCC(=O)N(O)CCCCCN` [desferrioxamine, reference compound], the IC50 in data set [3] is 70 µM; in data set [1] (Mus musculus, MBT2 cells, 72 hours, MTT, single experiment of FIG. 8, read-out: calculated IC50 from FIG. 8 data) it was 70 µM; in data set [1] (Mus musculus, MBT2 cells, 72 hours, MTT, tachpyr: average of four independent experiments ± standard error, read-out: IC50) it was 70 µM. For the same compound, in [1] (MBT2 cells, 72 hours, MTT), the “cytotoxicity (in words)” value is “cytotoxic”.

Turning to `CC(N)CNC1CC(NCC(C)N)CC(NCC(C)N)C1` (centres unmarked) [tachpn], the IC50 in [4] (preliminary cell culture experiments, cell line not stated) was around 80 µM. Further, the “decrease in toxicity relative to tachpyr” value in data set [4] (ratio of IC50 values) is 17 fold.

For `C(=NC1CC(N=Cc2ccccn2)CC(N=Cc2ccccn2)C1)c1ccccn1` (stereo not drawn) [tachpyr-3H2, cis,cis-1,3,5-tris(pyridine-2-carboxaldimino)cyclohexane], the “cytotoxicity (in words)” value in data set [5] was “no cytotoxicity”.

With `c1ccc(CNC2CC(NCc3ccccn3)CC(NCc3ccccn3)C2)nc1` (centres unmarked) [tachpyr], the IC50 in data set [6] is 30.5 µM; in data set [10], 4.3 µM; in [1] (MBT2 cells, 72 hours, MTT, single experiment of FIG. 8, read-out: calculated IC50 from FIG. 8 data), 3.6 µM; in data set [1] (MBT2 cells, 72 hours, MTT, tachpyr: average of four independent experiments ± standard error, read-out: IC50), 4.6 ± 2 µM; in data set [1] (Table I, cell type MBT2, read-out: IC50(μM) of Tachpyr) it was 2.2 µM. Besides, the “cytotoxicity (in words)” value in data set [7] is “cytotoxic”; in [1] (MBT2 cells, 72 hours, MTT), “cytotoxic”. Besides, the “toxicity (in words)” value in data set [8] is recorded as “extremely toxic”. The ferritin synthesis entry in data set [9] is “repressed”. Besides, the “DNA fragmentation (DNA ladders)” value in data set [11] is “clearly induced DNA fragmentation”. Further, in [1] (MBT2 cells, 25 μM tachpyr, time course, MTT), the delay of cytotoxicity entry is reported as “approximately 24 hours”. In addition, the colony formation result in data set [12] is “inhibited colony formation”.

Consider “[Fe(tachpyr)]Cl2 [FE(II) complex of tachpyr]”, for which the “cytotoxicity (in words)” value in data set [1] (MBT2 cells, 72 hours, MTT) was “not toxic”.

For orientation: IC50 means the point on the concentration scale where inhibition reaches its midpoint.

Source of the values: patent US6589966B1, “Cytotoxic metal chelators and methods for making and using same” (Wake Forest University Health Sciences, priority 1998, dated 2003).
